We go through four compounds from patent US20130209366A1, “Glutathione-Lanthionine Compounds and Methods Related Thereto” (OKLAHOMA MEDICAL RESEARCH FOUNDATION, priority 2010, published 2013).

Marks after values point to notes of the source that are not given here.

The test system of one assay is SOD1G93A mice. Put plainly: Rotarod motor function in SOD1G93A mice. Format: in vivo, mouse. As for the experimental part:
FIG. 8. […] Mice were treated with daily intraperitoneal injections of gLan, at the indicated dose, 5 days/week beginning at 90 d, and motor performance was evaluated by rotarod task as described in the examples.
(§1) Additional studies to explore effects of LKE in vivo, as a pharmacological candidate were conducted in a murine model for the motoneuron disease amyotrophic lateral sclerosis (ALS). In a first effort to assess LKE effects against a model of spontaneous neurodegeneration, SOD1G93A mutant mice modeling familial ALS [27-28] were treated with intraperitoneal (i.p.) injections of 100 mg/kg/d LKE in saline vehicle, from 90d throughout the remaining mouse lifespan. LKE is relevant to test in this mouse because the SOD1G93A mouse experiences robust neuroinflammation concomitant with TNFα-driven microglial activation, oxidative stress, and significant progressive distal axonopathy, all of which might be expected to be mitigated by LKE based on the ester's observed effects in cell culture. Mouse motor function was assessed as previously described using a standard rotarod test, at sequential 10d intervals (FIG. 6). Specific groups of mice were treated with LKE in saline or saline vehicle only.
(§2) Mice were injected with synthetic gLan in saline at 50-200 mg/kg/d, five days per week (Monday-Friday) beginning at 90d of age. Mice were assessed at baseline and every 10d for motor functional ability using the rotarod task as described previously.
(The rotarod test checks motor coordination on a turning rod.)

Assay [1] concerns NSC-34 motor neuron-like cells. As to conditions: NSC-34 cells; cited from earlier work.
Another assay deals with SOD1G93A mutant mice. Briefly: Onset of paralysis and survival in SOD1G93A mouse model of familial ALS. Format: in vivo. As to conditions: for age at death (d) mean / onset of paralysis (d) mean: 5 days/week from 90d. The protocol: as §1, with “only. […] Overall survival was increased by LKE based on logrank analysis (Table I).” for “only.”
as §2
Motor function dropped off rapidly amongst all groups at ages >110 d (FIG. 8). As in the case of LKE treatment, chronic intraperitoneal gLan at 100-200 mg/kg/dose tended to increase the age at which onset-of-paralysis was observed (based on a leg-clinch test) and the mean age of death of the SOD1G93A mice (Table II). When motor performance curves were interpolated to estimate the age at which mice lost an average 50% of baseline motor function, the 100 mg/kg/dose gLan treatment group reached this clinical endpoint approximately 18d later than the vehicle-treated group (FIG. 8).

A further assay has as its system NSC-34 cells. As to conditions: cited from earlier work.
Assay [2] deals with TNFα or LPS-treated microglia and macrophages. To be noted: cited from earlier work.
In a further assay the test system is HT-4 neurons. As to conditions: cited from earlier work.
For assay [3], the system named is primary dissociated chick dorsal root ganglia (DRG) cultures. Briefly: Neurite length in primary dissociated chick dorsal root ganglia cultures. Format: cell-based. As to conditions: 100 μM, treated at 2-3 DIV, 24 h. As for the experimental part: FIG. 5. LK-5-ethyl ester (LKE) promotes neurite extension in primary, dissociated chick dorsal root ganglia cell cultures. Neurons were treated with LKE or saline vehicle for 24 h from DIV2-3 and quantitatively assessed for neurite morphometry as described in the text.
Cell culture studies were performed to assess LKE effects on neuritigenesis in primary dissociated chick dorsal root ganglia (DRG) cultures prepared essentially as described by Margiotta and Howard. Cultures were treated with LKE at 2-3 days in vitro (DIV), and neuron morphometry was quantified from bright field micrographs by a blinded observer using Metamorph® software (Molecular Devices, Sunnyvale Calif. USA).

The next assay deals with syntaptosomal membranes. As to conditions: cited from earlier work.
[4] abbreviates: 100 mg/kg/d i.p. in saline from 90d, N = 15.

Turning to `CCOC(=O)C1CSCC(C(=O)O)=N1` (centres unmarked) [LKE, LK-5-ethyl ester], the “progression of clinical motoneuron disease” value in the assay on SOD1G93A mice (100 mg/kg/d i.p. from 90d, rotarod and leg-splay test) is “significantly slowed”. Further, in assay [1], the “protection from toxicity of hydrogen peroxide (H2O2)” value was “protected” and the “protection from toxicity of microglia-conditioned medium” value is listed as “protected”. The overall survival result with SOD1G93A mutant mice (100 mg/kg/d i.p. from 90d, logrank analysis) is on record as “increased”. Also, in the assay on SOD1G93A mutant mice (setting [4]), the “maximum age at death” value came to 152 days, the “median age at death (d)” value is 139† d and the “minimum age at death” value amounted to 124 days. In the assay with SOD1G93A mutant mice (100 mg/kg/d i.p. in saline from 90d, mean ± SEM, N = 15), the “age of frank paralysis” value was determined as 121.6 ± 2.5 days. The “growth factor-stimulated outgrowth of neurites” value in the assay with NSC-34 cells is on record as “promoted”. The nitric oxide synthesis result in assay [2] is listed as “suppressed”. In addition, the “protection against toxicity of high-dose glutamate” value in the assay on HT-4 neurons is listed as “protected”. In addition, the “mean neurite length of dissociated DRG neurons” value in assay [3] was “significantly increased”.
For `NC(CSC[C@H](NC(=O)CC[C@H](N)C(=O)O)C(=O)NCC(=O)O)C(=O)O` (some centres unmarked) [gLan, γGlu-Cys(S-Ala)-Gly], in the assay with SOD1G93A mice (100 mg/kg/dose, interpolated from motor performance curves), the “delay versus vehicle of the age at which mice lost an average 50% of baseline motor function” value was “approximately 18 d”. Moreover, in the assay on SOD1G93A mice (50-200 mg/kg/d, up to 110d or 120d, 100 mg/kg optimum, p<0.01 repeated measures ANOVA), the “motor function (rotarod)” value was “dose-dependently improved”. For the same compound, the “average rotarod performance at 100d and 110d versus 90d baseline” value with SOD1G93A mice (100-200 mg/kg/d) is “improved above the 90d baseline value”. Besides, the “motor function relative to saline treated control animals” value in the assay on SOD1G93A mice (100-200 mg/kg/d, ages <120d) was “twice”. In addition, the “age at death (d) mean” value in the assay on SOD1G93A mutant mice (gLan 50 mg/kg daily i.p.) was found to be 126.7 days; in the assay with SOD1G93A mutant mice (gLan 100 mg/kg daily i.p.) it was 138.3 days; with SOD1G93A mutant mice (gLan 200 mg/kg daily i.p.), 133.1 days. The “onset of paralysis (d) mean” value stood at 111.6 days with SOD1G93A mutant mice (gLan 50 mg/kg daily i.p.), 123.8 days with SOD1G93A mutant mice (gLan 100 mg/kg daily i.p.) and 116.7 days with SOD1G93A mutant mice (gLan 200 mg/kg daily i.p.).
As for `O=C(O)C1CSCC(C(=O)O)N1` (centres unmarked) [reduced LK, thiomorpholine dicarboxylic acid], in the assay on syntaptosomal membranes, the “displacement of [35S]LK” value was “could not displace”.
As to `O=C(O)C1=NC(C(=O)O)CSC1` (centres unmarked) [LK, 2H-1,4-thiazine-5,6-dihydro-3,5-dicarboxylic acid], the dissociation constant (Kd) at syntaptosomal membranes (saturable, reversible with cold LK, read-out: Kd of [35S]LK binding to synaptosomal membranes) is 58 nM. For the same compound, the nitric oxide synthesis result in assay [2] is given as “suppressed”. In addition, the “protection against toxicity of high-dose glutamate” value with HT-4 neurons was “protected”.

A word on the Kd: it is the constant that tells how readily two partners part at equilibrium.
